Source: patent publication EP4559896A1, “PH-SENSITIVE CATIONIC LIPID AND LIPID NANOPARTICLE” (National University Corporation Hokkaido University, priority 2022, dated 2024)

Tests used:
[1] = average particle size and polydispersity index by dynamic light scattering; format: physicochemical; conditions: Fluc mRNA-loaded lipid nanoparticles
Procedure: The average particle size (number average value), ζ-average particle size, and polydispersity index (PdI) of the lipid nanoparticles in PBS(-) (pH 7.4), and the zeta potential in 10 mM HEPES buffer (pH 7.4) were measured using an analyzer "Zetasizer Nano ZS ZEN3600" (manufactured by Malvern) utilizing dynamic light scattering.

[2] = encapsulation rate of lipid nanoparticles (RiboGreen); format: physicochemical; conditions: Fluc mRNA-loaded lipid nanoparticles
Procedure: The encapsulation rate of the lipid nanoparticles was determined by measuring the amount of encapsulated nucleic acid (mRNA) using RiboGreen (manufactured by Life Technologies), which is an RNAintercalator. The amount of mRNA was quantified based on a calibration curve prepared from a dilution series solution of mRNA at a known concentration.
Specifically, 10 mM HEPES buffer (pH 7.4), 10 w/v% Triton X-100, and RiboGreen were mixed at 978.8 µL, 20 µL, and 1.25 µL per 10 wells, respectively, to obtain a Triton(+) buffer. A Triton(-) buffer was obtained in replacing Triton X-100 with 10 mM HEPES buffer (pH 7.4). 100 µL/well of the sample was added to a black 96-well plate for fluorescence measurement, and 100 µL/well of Triton(+) buffer or Triton(-) buffer was added. After the plate was gently shaken on a shaking incubator (SI-300, manufactured by AS ONE) (700 rpm, 30 seconds), the fluorescence intensity of each well was measured using a microplate reader (VARIOSKAN LUX, manufactured by Thermo Fisher Scientific) (wavelength Ex/Em=500 nm/525 nm), and the nucleic acid encapsulation rate (%) was calculated.

[3] = system: BALB/c mice; experiment: Fluc activity in tissues of mice administered with Fluc mRNA-loaded lipid nanoparticles; format: in vivo; conditions: for luciferase activity in the lung compared with control mice (CL4F6-containing lipid nanoparticles) / luciferase activity in the heart compared with control mice (CL4F6-containing lipid nanoparticles) / luciferase activity in the muscle compared with control mice (CL4F6-containing lipid nanoparticles) / luciferase activity in the spleen compared with control mice (CL4F6-containing lipid nanoparticles): TOT/DSPC/chol/PEG-DMG=65/15/20/1.5, control CL4F6/DSPC/chol/PEG-DMG=50/10/40/1.5 (mol%)
Procedure: Lipid nanoparticles were administered to mice by intravenous injection into the tail vein using a 27G needle. Unless otherwise specified, BALB/c mice (4 to 5 weeks old, female) were used.
First, BALB/c mice (female, 4 weeks old) were intravenously injected with lipid nanoparticles encapsulating Fluc mRNA (Fluc mRNA-loaded lipid nanoparticles) at a dose of 0.01 mg mRNA/kg. Six hours after intravenous injection, the mice were euthanized, each tissue was collected, frozen in liquid nitrogen, and stored at -80°C. The tissues were homogenized in passive lysis buffer (manufactured by Promega) using a bead-type cell disruptor (Micro Smash MS-100R, manufactured by TOMY Seiko). Tissue debris was removed by centrifugation, and the supernatant was collected. Fluc activity in the supernatant was measured using the Luciferase Assay System (E1500, manufactured by Promega) according to the manufacturer's protocol. Luminescence was measured using a luminometer (Luminescencer-PSN, manufactured by ATTO). Protein concentration was determined using a commercially available assay kit (BCA Protein Assay Kit, manufactured by Pierce). Fluc activity was expressed as relative light units (RLU) per mg of protein.
Specifically, first, each lipid nanoparticle was intravenously administered into the tail vein of mice in an amount of 0.2 mg/kg of Fluc mRNA, and 6 hours after administration of the lipid nanoparticles, about 50 mg each of the liver, spleen, lung, heart, brain, and muscle was collected and stored frozen. 500 µL of passive lysis buffer (manufactured by Promega) was added to each tube containing the collected organ. The liver was homogenized at 4000 rpm for 20 seconds twice, the spleen, kidney, lung, and heart were homogenized at 5000 rpm for 20 seconds twice, and the muscle was homogenized at 5000 rpm for 20 seconds four times; then, the homogenate was centrifuged at 13000 rpm at 4°C for 10 minutes, and the supernatant was collected as a sample for measurement. The liver and spleen were diluted 100 times with passive lysis buffer. 50 µL of a measurement sample (tissue supernatant) was mixed with 50 µL of luciferase assay buffer of the Luciferase Assay System (E1500, manufactured by Promega) previously added in a test tube by pipetting, and the amount of luminescence was measured with a luminometer. Protein concentration was determined using a commercially available assay kit (BCA Protein Assay Kit, manufactured by Pierce). Fluc activity was expressed as relative light units (RLU) per mg of protein.

[4] = TOT-4/DSPC/chol/PEG-DMG=65/15/20/1.5, CL4F6/DSPC/chol/PEG-DMG=50/10/40/1.5 (mol%)
[5] = TOT/DSPC/chol/PEG-DMG=65/15/20/1.5 (mol%)
[6] = Example 16, TOT/DSPC/chol/PEG-DMG=65/15/20/1.5 (mol%), i.v. tail vein
[7] = Example 15, TOT-4/PC/chol/PEG-DMG=65/15/20/1 (mol%), PC = DSPC, i.v. tail vein

Encapsulation Rate [2, 5] | PdI [1, 5] | ζ-Average Particle Size [1, 5] | Compound | luciferase activity in the lung compared with control mice (CL4F6-containing lipid nanoparticles) ([3]; Example 33, i.v. tail vein) | other results
 |  |  | 7-(4-(diisopropylamino)butyl)-13-((2-hexylnonanoyl)oxy)-7-hydroxytridecyl 2-hexyldecanoate [CL4F6, reference compound] |  | Number Average Particle Size [1, 4]: 59.4 nm; PdI [1, 4]: 99.0; ζ-Average Particle Size [1, 4]: 90.7 nm
85.9% | 0.324 | 138.0 nm | CCCCCCCC/C=C\CCCCCCCC(=O)OCC(COC(=O)CCCCCCC/C=C\CCCCCCCC)(COC(=O)CCCCCCC/C=C\CCCCCCCC)NC(=O)CCN(C)C [TOT-1, 2-(3-(dimethylamino)propanamido)-2-((oleoyloxy)methyl)propane-1,3-diyl dioleate] |  | 
92.3% | 0.347 | 166.2 nm | CCCCCCCC/C=C\CCCCCCCC(=O)OCC(COC(=O)CCCCCCC/C=C\CCCCCCCC)(COC(=O)CCCCCCC/C=C\CCCCCCCC)NC(=O)CCCN(C)C [TOT-2, 2-(4-(dimethylamino)butanamido)-2-((oleoyloxy)methyl)propane-1,3-diyl dioleate] | higher | Fluc activity (RLU/mg protein) in the liver [3, 6]: confirmed in the liver in all the mice except for those administered with Fluc mRNA-loaded lipid nanoparticles using TOT-2
92.3% | 0.344 | 167.2 nm | CCCCCCCC/C=C\CCCCCCCC(=O)OCC(COC(=O)CCCCCCC/C=C\CCCCCCCC)(COC(=O)CCCCCCC/C=C\CCCCCCCC)NC(=O)C1CCN(C)CC1 [TOT-3, 2-(1-methylpiperidine-4-carboxamide)-2-((oleoyloxy)methyl)propane-1,3-diyl dioleate] | higher | 
83.5% | 0.157 | 134.3 nm | CCCCCCCC/C=C\CCCCCCCC(=O)OCC(COC(=O)CCCCCCC/C=C\CCCCCCCC)(COC(=O)CCCCCCC/C=C\CCCCCCCC)NC(=O)CCN(CC)CC [TOT-4, 2-(3-(diethylamino)propanamido)-2-((oleoyloxy)methyl)propane-1,3-diyl dioleate] | higher | Encapsulation Rate [2, 4]: 0.157%; Fluc activity (RLU/mg protein) in the liver and spleen ([3]; Example 13, TOT/DOPE/chol/PEG-DMG=60/15/25/1.0 (mol%), i.v. tail vein): very high; Fluc activity in the spleen compared with the liver ([3]; Example 15, TOT-4/PC/chol/PEG-DMG=65/15/20/1 (mol%), PC = DPPC, i.v. tail vein): higher Fluc activity in the spleen than in the liver; Fluc activity (RLU/mg protein) in the liver and spleen ([3]; Example 15, TOT-4/PC/chol/PEG-DMG=65/15/20/1 (mol%), PC = DSPC, DPPC, POPC, or DOPC, i.v. tail vein): confirmed; Fluc activity (RLU/mg protein) in the liver [3, 7]: relatively suppressed; Fluc activity in the spleen compared with the liver [3, 7]: higher Fluc activity in the spleen than in the liver; Fluc activity (RLU/mg protein) in the spleen [3, 6]: very high; gene expression in the spleen, times higher than Fluc mRNA-loaded lipid nanoparticles using RNA-LPX ([3]; Example 17, TOT-4/DSPC/chol/PEG-DMG=65/15/20/1.5 (mol%) versus RNA-LPX (DOTMA/DOPE=50/50 mol%), i.v. tail vein): 24 times; gene expression in the spleen and liver ([3]; Example 18, TOT-4/DSPC/chol/PEG-DMG=65/15/20/1.5 (mol%), similar to CL4F6/DSPC/chol/PEG-DMG=50/10/40/1.5, i.v. tail vein): high; luciferase activity in the spleen, lung, brain, heart, and muscle compared with CL4F6-containing lipid nanoparticles ([3]; Example 19, TOT-4/DSPC/chol/PEG-DMG=65/15/20/1.5 versus CL4F6/DSPC/chol/PEG-DMG=50/10/40/1.5 (mol%), i.v. 0.2 mg/kg of Fluc mRNA, 6 hours, N=3): higher; luciferase activity in the brain ([3]; Example 33, TOT/DSPC/chol/PEG-DMG=65/15/20/1.5 (mol%), i.v. tail vein): remarkably high; luciferase activity in the heart compared with control mice (CL4F6-containing lipid nanoparticles) ([3]; Example 33, i.v. tail vein): very high; luciferase activity in the muscle compared with control mice (CL4F6-containing lipid nanoparticles) ([3]; Example 33, i.v. tail vein): very high; luciferase activity in the spleen compared with control mice (CL4F6-containing lipid nanoparticles) ([3]; Example 33, i.v. tail vein): higher; Number Average Particle Size [1, 4]: 33.5 nm; ζ-Average Particle Size [1, 4]: 134.3 nm
95.4% | 0.190 | 102.5 nm | CCCCCCCC/C=C\CCCCCCCC(=O)OCC(COC(=O)CCCCCCC/C=C\CCCCCCCC)(COC(=O)CCCCCCC/C=C\CCCCCCCC)NC(=O)CN [TOT-6, 2-(2-aminoacetamido)-2-((oleoyloxy)methyl)propane-1,3-diyl dioleate] |  | 
92.4% | 0.232 | 128.0 nm | CCCCCCCC/C=C\CCCCCCCC(=O)OCC(COC(=O)CCCCCCC/C=C\CCCCCCCC)(COC(=O)CCCCCCC/C=C\CCCCCCCC)NC(=O)CNC [TOT-7, 2-(2-(methylamino)acetamido)-2-((oleoyloxy)methyl)propane-1,3-diyl dioleate] |  | luciferase activity in the heart compared with control mice (CL4F6-containing lipid nanoparticles) ([3]; Example 33, i.v. tail vein): higher
85.7% | 0.213 | 87.1 nm | CCCCCCCC/C=C\CCCCCCCC(=O)OCC(COC(=O)CCCCCCC/C=C\CCCCCCCC)(COC(=O)CCCCCCC/C=C\CCCCCCCC)NC(=O)[C@@H](N)CO [TOT-8, 2-((S)-2-amino-3-hydroxypropanamido)-2-((oleoyloxy)methyl)propane-1,3-diyl dioleate] |  | 
87.6% | 0.180 | 99.2 nm | CCCCCCCC/C=C\CCCCCCCC(=O)OCC(COC(=O)CCCCCCC/C=C\CCCCCCCC)(COC(=O)CCCCCCC/C=C\CCCCCCCC)NC(=O)CCN(C)CC [TOT-16, 2-(3-(ethyl(methyl)amino)propanamido)-2-((oleoyloxy)methyl)propane-1,3-diyl dioleate] |  | luciferase activity in the heart compared with control mice (CL4F6-containing lipid nanoparticles) ([3]; Example 33, i.v. tail vein): higher; luciferase activity in the muscle compared with control mice (CL4F6-containing lipid nanoparticles) ([3]; Example 33, i.v. tail vein): higher; luciferase activity in the spleen compared with control mice (CL4F6-containing lipid nanoparticles) ([3]; Example 33, i.v. tail vein): higher
92.2% | 0.319 | 130.0 nm | CCCCCCCC/C=C\CCCCCCCC(=O)OCC(COC(=O)CCCCCCC/C=C\CCCCCCCC)(COC(=O)CCCCCCC/C=C\CCCCCCCC)NC(=O)C1CCN(CC)CC1 [TOT-18, 2-(1-ethylpiperidine-4-carboxamide)-2-((oleoyloxy)methyl)propane-1,3-diyl dioleate] | higher | luciferase activity in the muscle compared with control mice (CL4F6-containing lipid nanoparticles) ([3]; Example 33, i.v. tail vein): very high
94.7% | 0.263 | 201.8 nm | CCCCCCCC/C=C\CCCCCCCC(=O)OCC(COC(=O)CCCCCCC/C=C\CCCCCCCC)(COC(=O)CCCCCCC/C=C\CCCCCCCC)NC(=O)C1CCN(C)C1 (centres unmarked) [TOT-20, 2-(1-methylpyrrolidine-3-carboxamide)-2-((oleoyloxy)methyl)propane-1,3-diyl dioleate] |  | 
